# Like-named read-outs stand apart in the source and are kept apart here. Starred links: 1 amine or outer side, 2 acyl side, 3 side chain; linkers in the order of their positions; H or OH if unused. Non-standard residues stand in square brackets, D forms with d. Residues, ends and D or L forms follow the SMILES beside them. *: point of attachment. Phe(4-CH2SO3H) = N[C@@H](Cc1ccc(CS(=O)(=O)O)cc1)C(=O)O; C20 diacid = O=C(O)CCCCCCCCCCCCCCCCCCC(=O)*; sY = N[C@@H](Cc1ccc(OS(=O)(=O)O)cc1)C(=O)O; C18 diacid = O=C(O)CCCCCCCCCCCCCCCCC(=O)*; γGlu = O=C(O)[C@H](CCC(=O)[*:2])N[*:1]; 1Nal = N[C@@H](Cc1cccc2ccccc12)C(=O)O; C14 diacid = O=C(O)CCCCCCCCCCCCC(=O)*; NMeF = CN[C@@H](Cc1ccccc1)C(=O)O; dNMeD = CN[C@H](CC(=O)O)C(=O)O; Nle = CCCC[C@H](N)C(=O)O; AEEA = NCCOCCOCC(=O)O
# Key:
# [1] = target: T1, human cholecystokinin-1 receptor (CCK-1R) (Homo sapiens, UniProt P32238); assay: In vitro potency on CCK-1R, whole cell functional assay (IP1 accumulation, IP-One HTRF); assay type: cell-based
# T1 construct: host or cells: 1321-N1 cells
# T1 sequence (P32238 1-428): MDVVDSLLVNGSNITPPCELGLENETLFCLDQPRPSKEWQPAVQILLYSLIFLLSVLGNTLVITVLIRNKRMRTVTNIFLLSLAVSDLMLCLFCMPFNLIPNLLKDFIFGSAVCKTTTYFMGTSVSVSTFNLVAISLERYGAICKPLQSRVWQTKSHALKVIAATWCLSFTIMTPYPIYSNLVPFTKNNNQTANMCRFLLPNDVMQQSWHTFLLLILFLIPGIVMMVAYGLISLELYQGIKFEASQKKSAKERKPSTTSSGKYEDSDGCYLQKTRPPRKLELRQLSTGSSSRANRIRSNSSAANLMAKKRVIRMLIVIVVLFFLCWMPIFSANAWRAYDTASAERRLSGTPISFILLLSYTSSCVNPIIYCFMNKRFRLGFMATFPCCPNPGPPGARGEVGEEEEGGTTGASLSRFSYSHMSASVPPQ
# [2] = target: T1, human cholecystokinin-1 receptor (CCK-1R); assay: In vitro receptor binding to CCK-1R, SPA displacement of [125I]-CCK-8s from plasma membranes
# [3] = target: T2, human cholecystokinin-2 receptor (CCK-2R) (Homo sapiens, UniProt P32239); assay: In vitro potency on CCK-2R, whole cell functional assay (IP1 accumulation, IP-One HTRF); assay type: cell-based
# T2 construct: host or cells: 1321-N1 cells (plasma membranes prepared by Evotec AG Hamburg)
# T2 sequence (P32239 1-447): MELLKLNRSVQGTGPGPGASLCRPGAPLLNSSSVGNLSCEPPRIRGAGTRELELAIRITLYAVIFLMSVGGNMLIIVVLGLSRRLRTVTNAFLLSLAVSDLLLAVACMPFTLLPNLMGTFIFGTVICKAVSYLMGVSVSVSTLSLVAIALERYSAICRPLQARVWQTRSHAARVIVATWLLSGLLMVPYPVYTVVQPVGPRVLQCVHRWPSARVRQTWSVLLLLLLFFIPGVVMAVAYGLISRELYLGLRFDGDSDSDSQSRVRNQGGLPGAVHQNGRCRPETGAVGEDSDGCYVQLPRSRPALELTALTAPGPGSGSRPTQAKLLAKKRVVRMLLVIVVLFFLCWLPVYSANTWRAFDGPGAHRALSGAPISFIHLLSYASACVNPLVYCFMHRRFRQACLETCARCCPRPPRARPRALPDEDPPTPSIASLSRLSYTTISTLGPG
# [4] = displacement of [125I]-CCK-8s, plasma membranes of 1321-N1 cells expressing CCK-1R, read-out: IC50 (CCK-1R)
# [5] = 1321-N1 cells stably expressing CCK-2R, IP1 accumulation, highest dose tested 1×10^6 pM, read-out: EC50 (CCK-2R)
smiles,measurement,setting,value
"CCCC[C@H](NC(=O)[C@H](Cc1c[nH]c2ccccc12)NC(=O)CNC(=O)[C@H](CC(C)C)NC(=O)[C@H](Cc1ccc(OS(=O)(=O)O)cc1)NC(=O)[C@H](CC(=O)O)NC(=O)[C@H](CO)NC(=O)[C@H](CO)NC(=O)CNC(=O)[C@H](CO)NC(=O)[C@H](CO)NC(=O)CNC(=O)CCCCCCCCCCCCCCCCC(=O)O)C(=O)N(C)[C@H](CC(=O)O)C(=O)N(C)[C@@H](Cc1ccccc1)C(N)=O [Example 29, 17-Carboxyheptadecanoyl-Gly-Ser-Ser-Gly-Ser-Ser-Asp-sTyr-Leu-Gly-Trp-Nle-DMeAsp-MePhe-amide] ({C18 diacid}-GSSGSSD[sY]LGW[Nle][dNMeD][NMeF]-NH2)",CCK-1R selectivity (EC50 (CCK-2R)/EC50 (CCK-1R)),"[1]; ratio of functional EC50 values, >1 = preference for CCK-1R",28
same,IC50,[2]; [4],0.072 nM
same,CCK-1R binding selectivity (IC50 (CCK-2R)/IC50 (CCK-1R)),"[2]; ratio of binding IC50 values, >1 = preference for CCK-1R",5100
"CCCC[C@H](NC(=O)[C@H](Cc1c[nH]c2ccccc12)NC(=O)CNC(=O)[C@H](CC(C)C)NC(=O)[C@H](Cc1ccc(CS(=O)(=O)O)cc1)NC(=O)[C@H](CC(=O)O)NC(=O)COCCOCCNC(=O)COCCOCCNC(=O)CC[C@H](NC(=O)CCCCCCCCCCCCC(=O)O)C(=O)O)C(=O)N(C)[C@H](CC(=O)O)C(=O)N(C)[C@@H](Cc1ccccc1)C(N)=O [Example 34, 2-[2-[2-[[2-[2-[2-[[(4S)-4-Carboxy-4-(13-carboxytridecanoylamino)butanoyl]amino]ethoxy]ethoxy]acetyl]amino]ethoxy]ethoxy]acetyl-Asp-Phe(4-sulfomethyl)-Leu-Gly-Trp-Nle-DMeAsp-MePhe-amide] ({C14 diacid-γGlu-AEEA-AEEA}-D[Phe(4-CH2SO3H)]LGW[Nle][dNMeD][NMeF]-NH2)",EC50,"[1]; 1321-N1 cells stably expressing CCK-1R, IP1 accumulation, average of min. three replicates, read-out: EC50 (CCK-1R)",0.21 nM
same,EC50,[3]; [5],> 1000 nM
"CCCC[C@H](NC(=O)[C@H](Cc1c[nH]c2ccccc12)NC(=O)CNC(=O)[C@H](CC(C)C)NC(=O)[C@H](Cc1ccc(CS(=O)(=O)O)cc1)NC(=O)[C@H](CC(=O)O)NC(=O)COCCOCCNC(=O)COCCOCCNC(=O)CC[C@H](NC(=O)CCCCCCCCCCCCCCCCCCC(=O)O)C(=O)O)C(=O)N(C)[C@H](CC(=O)O)C(=O)N(C)[C@@H](Cc1ccccc1)C(N)=O [Example 35, 2-[2-[2-[[2-[2-[2-[[(4S)-4-Carboxy-4-(19-carboxynonadecanoylamino)butanoyl]amino]ethoxy]ethoxy]acetyl]amino]ethoxy]ethoxy]acetyl-Asp-Phe(4-sulfomethyl)-Leu-Gly-Trp-Nle-DMeAsp-MePhe-amide] ({C20 diacid-γGlu-AEEA-AEEA}-D[Phe(4-CH2SO3H)]LGW[Nle][dNMeD][NMeF]-NH2)",EC50,[3]; [5],> 1000 nM
"CCCC[C@H](NC(=O)[C@H](Cc1ccc(CS(=O)(=O)O)cc1)NC(=O)[C@H](CC(=O)O)NC(=O)COCCOCCNC(=O)COCCOCCNC(=O)CC[C@H](NC(=O)CCCCCCCCCCCCCCCCC(=O)O)C(=O)O)C(=O)NCC(=O)N[C@@H](Cc1c[nH]c2ccccc12)C(=O)N[C@@H](CCCC)C(=O)N(C)[C@H](CC(=O)O)C(=O)N(C)[C@@H](Cc1ccccc1)C(N)=O [Example 3, 2-[2-[2-[[2-[2-[2-[[(4S)-4-Carboxy-4-(17-carboxyheptadecanoylamino)butanoyl]amino]ethoxy]ethoxy]acetyl]amino]ethoxy]ethoxy]acetyl-Asp-Phe(4-sulfomethyl)-Nle-Gly-Trp-Nle-DMeAsp-MePhe-amide] ({C18 diacid-γGlu-AEEA-AEEA}-D[Phe(4-CH2SO3H)][Nle]GW[Nle][dNMeD][NMeF]-NH2)",EC50,[1],0.31 nM
same,EC50,[3],> 1000 nM
same,IC50,[2],0.26 nM
"CCCC[C@H](NC(=O)[C@H](Cc1ccc(OS(=O)(=O)O)cc1)NC(=O)[C@H](CC(=O)O)NC(=O)COCCOCCNC(=O)COCCOCCNC(=O)CC[C@H](NC(=O)CCCCCCCCCCCCCCCCC(=O)O)C(=O)O)C(=O)NCC(=O)N[C@@H](Cc1c[nH]c2ccccc12)C(=O)N[C@@H](CCCC)C(=O)N(C)[C@H](CC(=O)O)C(=O)N[C@@H](Cc1cccc2ccccc12)C(N)=O [Example 2, 2-[2-[2-[[2-[2-[2-[[(4S)-4-Carboxy-4-(17-carboxyheptadecanoylamino)butanoyl]amino]ethoxy]ethoxy]acetyl]amino]ethoxy]ethoxy]acetyl-Asp-sTyr-Nle-Gly-Trp-Nle-DMeAsp-1Nal-amide] ({C18 diacid-γGlu-AEEA-AEEA}-D[sY][Nle]GW[Nle][dNMeD][1Nal]-NH2)",EC50,[3]; [5],180 nM
same,IC50,[2]; [4],0.13 nM

# — patent publication US20170008928A1, “NOVEL PEPTIDES AND PEPTIDE DERIVATIVES AND USES THEREOF” (Novo Nordisk A/S, priority 2015, published 2017)
